According to patent US11339171B2, “MDM2 inhibitors” (Gan & Lee Pharmaceuticals, priority 2017, dated 2022):

How the values were obtained:
MDM2 = biological target: T1, MDM2 (Homo sapiens, UniProt Q00987); test: Inhibition test of MDM2-P53 (GST-MDM2, Biotin-P53, Anti-GST-Tb, SA-XL665); type: binding
T1 construct: made in house
Outline: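 Binding was measured by TR-FRET with GST-MDM2 at 4 nM final in PBS with 0.1% BSA, 5 mM DTT and 1 mM AEBSF. Compounds were tested as twelve-point 5-fold dilutions and incubated with the detection mix for 90 min at 25 °C with shaking before plate-reader reading and curve fitting.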

[1] = tested on: human osteosarcoma cell line SJSA-1; test: Inhibition of proliferation of human osteosarcoma cell line SJSA-1 (DAPI staining, In Cell Analyzer); conditions: Homo sapiens, SJSA-1, 72 h, read-out: IC50 (nM), inhibitory activity on proliferation of human osteosarcoma cell line SJSA-1, SJSA-1, incubated 72 h

T1 sequence (Q00987 whole entry): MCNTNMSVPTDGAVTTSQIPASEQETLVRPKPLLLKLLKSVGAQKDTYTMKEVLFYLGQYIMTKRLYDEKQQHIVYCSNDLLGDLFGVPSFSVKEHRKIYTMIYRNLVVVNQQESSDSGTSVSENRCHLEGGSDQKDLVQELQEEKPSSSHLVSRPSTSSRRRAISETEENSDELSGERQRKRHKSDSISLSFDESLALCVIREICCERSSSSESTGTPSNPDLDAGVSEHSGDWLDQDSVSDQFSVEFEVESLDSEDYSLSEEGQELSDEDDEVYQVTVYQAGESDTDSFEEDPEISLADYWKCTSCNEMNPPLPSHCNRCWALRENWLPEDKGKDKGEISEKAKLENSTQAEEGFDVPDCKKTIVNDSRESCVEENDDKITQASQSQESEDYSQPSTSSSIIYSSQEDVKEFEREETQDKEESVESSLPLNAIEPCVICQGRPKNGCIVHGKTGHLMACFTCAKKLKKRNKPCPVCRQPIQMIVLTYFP

Compound | IC50 (MDM2) | IC50 [1]
COc1ncc(-c2nc3c(n2C2CC2)[C@@]2(C(=O)Nc4cc(Cl)ccc42)N(c2cc(Cl)ccc2C)C3=O)c(OC)n1 [Example S-28, (S)-6-chloro-5′-(5-chloro-2-methylphenyl)-3′-cyclopropane-2′-(2,4-dimethoxypyrimidin-5-yl)-3′H-spiro[dihydroindole-3,4′-pyrrolo[3,4-d]imidazole]-2,6′(5′H)-dione] | 54.3 nM | 1290 nM
COc1ccc(C(N)=O)cc1-c1nc2c(n1C(C)C)[C@@]1(C(=O)Nc3cc(Cl)ccc31)N(c1cc(Cl)ccc1C)C2=O [Example S-29, (S)-3-(6-chloro-5′-(5-chloro-2-methylphenyl)-3′-isopropyl-2,6′-dioxo-5′,6′-dihydro-3′H-spiro[dihydroindole-3,4′-pyrrolo[3,4-d]imidazole]-2′-yl)-4-methoxybenzamide] | 1.01 nM | 196 nM
Cc1ccc(Cl)cc1N1C(=O)c2nc(-c3ccccc3OC(F)F)n(C(C)C)c2[C@@]12C(=O)Nc1cc(Cl)ccc12 [Example S-30, (S)-6-chloro-5′-(5-chloro-2-methylphenyl)-2′-(2-(difluoromethoxy)phenyl)-3′-isopropyl-3′H-spiro[dihydroindole-3,4′-pyrrolo[3,4-d]imidazole]-2,6′(5′H)-dione] | 3.31 nM | 58.1 nM
Cc1ccc(Cl)cc1N1C(=O)c2nc(-c3ccccc3OC(F)(F)F)n(C(C)C)c2[C@@]12C(=O)Nc1cc(Cl)ccc12 [Example S-31, (S)-6-chloro-5′-(5-chloro-2-methylphenyl)-3′-isopropyl-2′-(2-(trifluoromethoxy)phenyl)-3′H-spiro[dihydroindole-3,4′-pyrrolo[3,4-d]imidazole]-2,6′(5′H)-dione] | 60.1 nM | 1580 nM
CCc1ccc(-c2nc3c(n2C(C)C)[C@@]2(C(=O)Nc4cc(Cl)ccc42)N(c2cc(Cl)ccc2C)C3=O)c(OC)c1 [Example S-33, (S)-6-chloro-5′-(5-chloro-2-methylphenyl)-2′-(4-ethyl-2-methoxyphenyl)-3′-isopropyl-3′H-spiro[dihydroindole-3,4′-pyrrolo[3,4-d]imidazole]-2,6′(5′H)-dione] | 2.47 nM | 9.7 nM
Cc1ccc(Cl)cc1N1C(=O)c2nc(-c3ccccc3OC(C)C)n(C(C)C)c2[C@@]12C(=O)Nc1cc(Cl)ccc12 [Example S-34, (S)-6-chloro-5′-(5-chloro-2-methylphenyl)-2′-(2-isopropoxyphenyl)-3′-isopropyl-3′H-spiro[dihydroindole-3,4′-pyrrolo[3,4-d]imidazole]-2,6′(5′H)-dione] | 139 nM | 619 nM
CCOc1ccccc1-c1nc2c(n1C(C)C)[C@@]1(C(=O)Nc3cc(Cl)ccc31)N(c1cc(Cl)ccc1C)C2=O [Example S-35, (S)-6-chloro-5′-(5-chloro-2-methylphenyl)-2′-(2-ethoxyphenyl)-3′-isopropyl-3′H-spiro[dihydroindole-3,4′-pyrrolo[3,4-d]imidazole]-2,6′(5′H)-dione] | 23.4 nM | 258 nM
CCc1ccc(OC)c(-c2nc3c(n2C(C)C)[C@@]2(C(=O)Nc4cc(Cl)ccc42)N(c2cc(Cl)ccc2C)C3=O)c1 [Example S-37, (S)-6-chloro-5′-(5-chloro-2-methylphenyl)-2′-(5-ethyl-2-methoxyphenyl)-3′-isopropyl-3′H-spiro[dihydroindole-3,4′-pyrrolo[3,4-d]imidazole]-2,6′(5′H)-dione] | 22 nM | 14.2 nM
CCc1ccc(OC)c(-c2nc3c(n2C(C)C)[C@@]2(C(=O)Nc4cc(Cl)ccc42)N(c2cccc(Cl)c2)C3=O)c1 [Example S-38, (S)-6-chloro-5′-(3-chlorophenyl)-2′-(5-ethyl-2-methoxyphenyl)-3′-isopropyl-3′H-spiro[dihydroindole-3,4′-pyrrolo[3,4-d]imidazole]-2,6′(5′H)-dione] | 12 nM | 14.7 nM
COc1ccc(-c2nc3c(n2C(C)C)[C@@]2(C(=O)Nc4cc(Cl)ccc42)N(c2cc(Cl)cn(C)c2=O)C3=O)c(OC)c1 [Example S-39, (S)-6-chloro-5′-(5-chloro-1-methyl-2-oxo-1,2-dihydropyridin-3-yl)-2′-(2,4-dimethoxyphenyl)-3′-isopropyl-3′H-spiro[dihydroindole-3,4′-pyrrolo[3,4-d]imidazole]-2,6′(5′H)-dione] | 3.93 nM | 1180 nM
COc1cc(-c2nc3c(n2C(C)C)[C@@]2(C(=O)Nc4cc(Cl)ccc42)N(c2cc(Cl)ccc2C)C3=O)c(OC)cn1 [Example S-40, (S)-6-chloro-5′-(5-chloro-2-methylphenyl)-2′-(2,5-dimethoxypyridin-4-yl)-3′-isopropyl-3′H-spiro[dihydroindole-3,4′-pyrrolo[3,4-d]imidazole]-2,6′(5′H)-dione] | 3.85 nM | 14.1 nM
COc1ncc(-c2nc3c(n2C2CCC2)[C@@]2(C(=O)Nc4cc(Cl)ccc42)N(c2cc(Cl)ccc2C)C3=O)c(OC)n1 [Example S-41, (S)-6-chloro-5′-(5-chloro-2-methylphenyl)-3′-cyclobutyl-2′-(2,4-dimethoxypyrimidin-5-yl)-3′H-spiro[dihydroindole-3,4′-pyrrolo[3,4-d]imidazole]-2,6′(5′H)-dione] | 149 nM | 1210 nM
COc1ncc(-c2nc3c(n2C(C)C)[C@@]2(C(=O)Nc4cc(Cl)ccc42)N(c2cc(Cl)cnc2C)C3=O)c(OC)n1 [Example S-42, (S)-6-chloro-5′-(5-chloro-2-methylpyridin-3-yl)-2′-(2,4-dimethoxypyrimidin-5-yl)-3′-isopropyl-3′H-spiro[dihydroindole-3,4′-pyrrolo[3,4-d]imidazole]-2,6′(5′H)-dione] | 1.51 nM | 5.6 nM
COc1ccccc1-c1nc2c(n1C(C)C)[C@@]1(C(=O)Nc3cc(Cl)ccc31)N(c1cc(Cl)cn(C)c1=O)C2=O [Example S-43, (S)-6-chloro-5′-(5-chloro-1-methyl-2-oxo-1,2-dihydropyridin-3-yl)-3′-isopropyl-2′-(2-methoxyphenyl)-3′H-spiro[dihydroindole-3,4′-pyrrolo[3,4-d]imidazole]-2,6′(5′H)-dione] | 3.28 nM | 564 nM
COc1cc(CN(C)C)ccc1-c1nc2c(n1C(C)C)[C@@]1(C(=O)Nc3cc(Cl)ccc31)N(c1cc(Cl)ccc1C)C2=O [Example S-47, (S)-6-chloro-5′-(5-chloro-2-methylphenyl)-2′-(4-((dimethylamino)methyl)-2-methoxyphenyl)-3′-isopropyl-3′H-spiro[dihydroindole-3,4′-pyrrolo[3,4-d]imidazole]-2,6′(5′H)-dione] | 4.16 nM | 14 nM
COc1cc(N)ccc1-c1nc2c(n1C(C)C)[C@@]1(C(=O)Nc3cc(Cl)ccc31)N(c1cc(Cl)ccc1C)C2=O [Example S-49, (S)-2′-(4-amino-2-methoxyphenyl)-6-chloro-5′-(5-chloro-2-methylphenyl)-3′-isopropyl-3′H-spiro[dihydroindole-3,4′-pyrrolo[3,4-d]imidazole]-2,6′(5′H)-dione] | 1.72 nM | 5.92 nM
COc1ncc(-c2cc3c(n2C(C)C)[C@@]2(C(=O)Nc4cc(Cl)ccc42)N(c2cc(Cl)ccc2C)C3=O)c(OC)n1 [Example S-50, (S)-6-chloro-5′-(5-chloro-2-methylphenyl)-2′-(2,4-dimethoxypyrimidin-5-yl)-1′-isopropyl-1′H-spiro[dihydroindole-3,6′-pyrrolo[3,4-b]pyrrole]-2,4′(5′H)-dione] | 85.5 nM | 1320 nM
COc1ncc(-c2nc3c(n2C(C)C)[C@@]2(C(=O)Nc4cc(Cl)ccc42)N(c2cc(C)cc(Cl)c2)C3=O)c(OC)n1 [Example S-51, (S)-6-chloro-5′-(3-chloro-5-methylphenyl)-2′-(2,4-dimethoxypyrimidin-5-yl)-3′-isopropyl-3′H-spiro[dihydroindole-3,4′-pyrrolo[3,4-d]imidazole]-2,6′(5′H)-dione] | 4.36 nM | 62.6 nM
COc1ccc(-c2nc3c(n2C(C)C)[C@@]2(C(=O)Nc4cc(Cl)ccc42)N(c2cc(Cl)c(=O)n(C)c2)C3=O)c(OC)c1 [Example S-52, (S)-6-chloro-5′-(5-chloro-1-methyl-6-oxo-1,6-dihydropyridin-3-yl)-2′-(2,4-dimethoxyphenyl)-3′-isopropyl-3′H-spiro[dihydroindole-3,4′-pyrrolo[3,4-d]imidazole]-2,6′(5′H)-dione] | 0.87 nM | 467 nM
COc1ccccc1-c1nc2c(n1C(C)C)[C@@]1(C(=O)Nc3cc(Cl)ccc31)N(c1cc(Cl)c(=O)n(C)c1)C2=O [Example S-53, (S)-6-chloro-5′-(5-chloro-1-methyl-6-oxo-1,6-dihydropyridin-3-yl)-3′-isopropyl-2′-(2-methoxyphenyl)-3′H-spiro[dihydroindole-3,4′-pyrrolo[3,4-d]imidazole]-2,6′(5′H)-dione] | 0.84 nM | 213 nM
CNC(=O)c1ccc(-c2nc3c(n2C(C)C)[C@@]2(C(=O)Nc4cc(Cl)ccc42)N(c2cc(Cl)ccc2C)C3=O)c(OC)c1 [Example S-54, (S)-4-(6-chloro-5′-(5-chloro-2-methylphenyl)-3′-isopropyl-2,6′-dioxo-5′,6′-dihydro-3′H-spiro[dihydroindole-3,4′-pyrrolo[3,4-d]imidazole]-2′-yl)-3-methoxy-N-methylbenzamide] | 2.25 nM | 468 nM
COc1ncc(-c2nc3c(n2C(C)C)[C@@]2(C(=O)Nc4cc(Cl)ccc42)N(c2cccc(C)c2)C3=O)c(OC)n1 [Example S-55, (S)-6-chloro-2′-(2,4-dimethoxypyrimidin-5-yl)-3′-isopropyl-5′-(m-tolyl)-3′H-spiro[dihydroindole-3,4′-pyrrolo[3,4-d]imidazole]-2,6′(5′H)-dione] | 4.25 nM | 117 nM
